# Test system: Saccharomyces cerevisiae ABC16-Green Monster
# Test: growth inhibition at single dose (up to 150 µM), below the 70% cut-off for dose-response; higher = more potent
# Settings: 18 h; 30 °C; YPD
# In short: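 The entry is percent growth inhibition of drug-sensitive S. cerevisiae ABC16-Green Monster cells. After overnight growth in YPD at 30 °C, cells were diluted to OD600 0.1–0.2 and exposed to each library compound at 150 µM in 200 µl per well, in biological duplicates with untreated cultures beside them, and OD600 was read at 0 h and after 18 h at 30 °C. Any compound under 70% in both replicates was not carried to dose-response.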
row,SMILES,growth inhibition at single dose [%]
1,CCCOCc1cc(CN2CCN(c3cccc(Cl)c3)CC2)c(O)c2ncccc12,< 70
2,COc1ccc(-c2c(C)nn3c(NCc4ccccn4)cc(C)nc23)cc1OC,< 70
3,CN(C)c1nc(N)nc(CN(Cc2nc(N)nc(N(C)C)n2)C23CC4CC(CC(C4)C2)C3)n1,< 70
4,CC(=O)N(CCN(C(=O)c1ccc(F)cc1)c1ccccc1)c1ccccc1,< 70
5,Cc1ccc(-c2nc3ccccc3o2)cc1NCc1cc(Cc2ccccc2)ccc1O,< 70
6,COc1ccc(CNc2ncnc3ccccc23)cc1,< 70
7,N#Cc1ccsc1NC(=O)CN1CCN(CC(=O)Nc2ccc(Cl)c(C(F)(F)F)c2)CC1,< 70
8,Cc1noc(C)c1S(=O)(=O)N(Cc1ccc(C(=O)NC2CC2)cc1)C1CC1,< 70
9,COc1ccc(C2=NOC(C(N)=O)C2)cc1OC (stereo not given),< 70
10,CC(C)NC(=O)NCc1ccc(C(=O)OCC(=O)C(C#N)=C2Nc3ccccc3N2)cc1,< 70
11,C[C@@H]1[C@H](O)[C@@H](C)/C=C/C=C/C=C/C=C/C=C/C=C/C=C/[C@H](O[C@@H]2O[C@H](C)[C@@H](O)[C@H](N)[C@@H]2O)C[C@@H]2O[C@](O)(C[C@@H](O)C[C@@H](O)[C@H](O)CC[C@@H](O)C[C@@H](O)CC(=O)O[C@H]1C)C[C@H](O)[C@H]2C(=O)O,< 70
12,Nc1ncc(Br)cc1-c1nc2cc(Cl)cnc2[nH]1,< 70
13,Nc1ccc(-c2nc3cc(Cc4ccc5[nH]c(-c6ccc(N)cc6)nc5c4)ccc3[nH]2)cc1,< 70
14,Cc1ccc(C)c(-c2csc(Nc3ccc(C)c(C)c3)n2)c1,< 70
15,COc1cccc(NC(=O)Cn2c(C)c(C#N)c3ccccc32)c1,< 70
16,CN(Cc1ccccc1)S(=O)(=O)c1ccc(Cl)c(C(=O)Nc2nnc(C(F)(F)F)[nH]2)c1,< 70
17,CCCCc1c(CCC)c(=N)c2ccccc2n1C,< 70
18,OCC1CCCN(c2nn3cc(-c4ccccc4)nc3s2)C1 (stereo not given),< 70
19,Cc1c(C)n(Cc2ccc(F)cc2)c2ccc(C(=O)NCc3ccco3)cc12,< 70
20,Cc1sc(NC(=O)c2ccco2)c(C(c2cccnc2)N2CCC(Cc3ccccc3)CC2)c1C (stereo not given),< 70
21,O=C(CSc1ccc2nnc(-c3cccc(F)c3)n2n1)Nc1ccc2c(c1)OCO2,< 70
22,O=C(Nc1ccc(-c2nc3cc4ccccc4cc3[nH]2)cc1)c1cccc(Br)c1,< 70
23,CCN1CCN(Cc2ccc(NC(=O)c3cc4ccc5cccnc5c4[nH]3)cc2)CC1,< 70
24,CC1CCN(Cc2ccc(NC(=O)c3cc4ccc5cccnc5c4[nH]3)cc2)CC1,< 70
25,Cc1ccc(F)cc1NC(=O)c1cc(Cl)ccc1Nc1ccccc1,< 70
26,N#CCN(CCCCN1CCN(c2ccc(F)cc2)CC1)C(=O)OCc1ccccc1,< 70
27,Cc1ccc(NC(=O)Nc2cccc(Cl)c2)cc1F,< 70

row,SMILES,growth inhibition at single dose [%]
1,N#Cc1ccc(NCCNc2nc3ccccc3s2)nc1,< 70
2,CCOc1ccc2nc(C)cc(Nc3ccc(N(C)C)cc3)c2c1,< 70
3,CC1S/C(=C\c2nc3ccccc3s2)NC1=O (stereo not given),< 70
4,Cc1cc(C)n(-c2nc(-c3ccccc3)cc(N(C)CCO)n2)n1,< 70
5,Cc1ccc(S(=O)(=O)N2c3ccc(S(N)(=O)=O)cc3CC2C)cc1 (stereo not given),< 70
6,COc1ccc(Nc2nc(NN=Cc3ccc(O)cc3)nc(Nc3ccc([N+](=O)[O-])cc3)n2)cc1,< 70
7,CC(c1ccc(-c2ccccc2)c(F)c1)c1nn2c(-c3ccco3)nnc2s1 (stereo not given),< 70
8,O=C(NCCCc1nc2ccccc2[nH]1)c1[nH]nc2ccccc12,< 70
9,CN(CC(=O)Nc1ccccc1N1CCCC1)Cc1ccc2ccccc2c1,< 70
10,Cc1cc(NCC(C)C)c2n[nH]c(-c3ccccc3)c2n1,< 70
11,Cc1cc(OCC(=O)NCc2ccccc2)c2cc(Br)ccc2n1,< 70
12,Cc1cc(C(=O)Cn2nnc3ccccc3c2=O)c(C)n1-c1ccccc1,< 70
13,Cc1ccc(CC(=O)NCc2ccc(C#N)cc2)cc1,< 70
14,COc1cccc(C(=O)NC(c2ccc(C)cc2)c2cc(Cl)c3cccnc3c2O)c1 (stereo not given),< 70
15,Cc1cc(Nc2ccc3ccccc3c2)n2ncnc2n1,< 70
16,CCn1ncc2c(NC3CCOCC3)c(CNC(=O)c3ccnn3C)c(C)nc21,< 70
17,Cc1sc(NC(=O)c2ccccc2)c(C(c2cccs2)N2CCN(c3ccccc3)CC2)c1C (stereo not given),< 70
18,CC(C)(C)C(=O)N(CCCCCCN1C[C@H](O)[C@@H](O)[C@H](O)[C@H]1CO)C1CCCCCC1,< 70
19,c1ccc(Nc2nc(-c3ccc4c(c3)OCCO4)cs2)nc1,< 70
20,COCC(C)n1c(C)cc(C(=O)CSc2ccc(NC(C)=O)cc2)c1C (stereo not given),< 70
21,COc1ccc(/C(C#N)=C/c2ccccc2OC)cc1,< 70
22,COc1ccc(O)c(C(=O)c2cnc3cc4c(cc3c2)OCCO4)c1,< 70
23,O=C(Nc1ncccc1O)c1ccc(S(=O)(=O)NCc2ccco2)cc1,< 70
24,COCCNC(=O)c1ccc(OC2CCN(Cc3ccc(F)c(F)c3)CC2)c(Cl)c1,< 70
25,O=C(Nc1ncccc1O)c1ccc(-n2ccnc2)cc1,< 70
26,CNc1snc(C)c1C(=O)N(C)Cc1ccc(C(C)C)cc1,< 70
27,CC1=C(C#N)C(/C=N/N(C)c2ncc(C(F)(F)F)cc2Cl)CC(=O)N1 (stereo not given),< 70

row,SMILES,growth inhibition at single dose [%]
1,Nc1c(C(=O)c2ccc3c(c2)NC(=O)CO3)sc2c1c(=O)[nH]c(=O)n2Cc1ccccc1,< 70
2,CC1CCN(Cc2c(O)ccc3cc(-c4nc5ccccc5s4)c(=O)oc23)CC1,< 70
3,Cc1cc(C)n(-c2ccc(NC(=O)C3(c4ccccc4)CC3)cn2)n1,< 70
4,COc1ccc(-c2nonc2NC(=O)c2cccc(C)c2)cc1OC,< 70
5,COc1cccc(C2(C)Nc3ccccc3-c3nc4ccccc4n32)c1 (stereo not given),< 70
6,Cc1cc(-c2cc(C(=O)N3CCCN(C)c4nc5ccccc5nc43)c3c(C)noc3n2)c(C)s1,< 70
7,Cc1cc(C(=O)COc2ccc(C(N)=O)cc2)c(C)n1-c1ccc2c(c1)OCO2,< 70
8,c1ccc(NCCNc2nc(-c3ccncc3)nc3ccccc23)nc1,< 70
9,NC(=O)c1cc(-c2ccsc2)ccc1OCCOc1ccccc1,< 70
10,COc1ccc(CCN2C(=O)c3[nH]nc(-c4cc(Cl)c(C)cc4O)c3C2c2ccccc2F)cc1 (stereo not given),< 70
11,O=C(CC1Sc2ccccc2NC1=O)NCCCn1ccc2ccccc21 (stereo not given),< 70
12,COc1ccc(C(=O)C2CC2c2ccc(Cl)cc2)cc1 (stereo not given),< 70
13,COc1ccc(S(=O)(=O)Nc2ccc(CN3CCN(C(=O)c4cccc(C#N)c4)CC3)cc2)cc1,< 70
14,Nc1ccc(-c2nc3cc(Oc4ccc(Oc5ccc6[nH]c(-c7ccc(N)cc7)nc6c5)cc4)ccc3[nH]2)cc1,< 70
15,C=CCn1c[n+](C2=C(NS(=O)(=O)c3ccc(C)cc3)C(=O)c3ccccc3C2=O)c2ccccc21,< 70
16,CCc1nc(COC(=O)c2c(C)nsc2NC)cs1,< 70
17,Nc1nccc2ccc(Oc3ccncc3)cc12,< 70
18,CO[C@@H](C(=O)N1Cc2[nH]nc(NC(=O)c3ccc(N4CCN(C)CC4)cc3)c2C1)c1ccccc1,< 70
19,O=C(NCc1ccco1)C1CCN(S(=O)(=O)c2ccc(Cl)cc2)CC1,< 70
20,COC(=O)c1c(NC(=O)c2cc3ccccc3oc2=O)sc2c1CCN(Cc1ccccc1)C2,< 70
21,O=C(NC1=NCCS1)c1sc2cc(F)ccc2c1Cl,< 70
22,COc1ccc(C2Sc3ccccc3N=C3C2=C(O)c2ccccc23)cc1 (stereo not given),< 70
23,COc1ccc(CN=C2NN=C(c3cc4ccccc4o3)CS2)cc1,< 70
24,CN1CCN(c2c3c(c(C#N)c4nc5ccccc5n24)CCC3)CC1,< 70
25,COc1ccc(OC)c(C(C)Nc2ncnc3sccc23)c1 (stereo not given),< 70
26,COc1ccc(-c2nnc(SC(C)C(=O)NCCC3=CCCCC3)[nH]2)cc1 (stereo not given),< 70
